# Tests used:
# itchgrass = test: Test D itchgrass; format: in vivo, Rottboellia exaltata; settings: Postemergence, 0 to 100 scale
# large crabgrass [1] = test: Test D large crabgrass; format: in vivo, Digitaria sanguinalis; settings: Postemergence, 0 to 100 scale
# pitted morningglory = test: Test D pitted morningglory; format: in vivo, Ipomoea lacunosa; settings: Postemergence, 0 to 100 scale
# arrowleaf sida = test: Test C postemergence arrowleaf sida; format: in vivo, Sida rhombifolia; settings: 0 to 100 scale, 0 no effect, 100 complete control
# In short: (§1)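 Scores (0 = no effect, 100 = complete control) come from visual comparison with untreated controls after about 14–21 days. Spray formulation was a non-phytotoxic solvent mixture including surfactant; plants grew in a 60:40 sandy loam–potting mix blend.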
# corn = test: Test C postemergence corn; format: in vivo, Zea mays; settings: 0 to 100 scale, 0 no effect, 100 complete control
# Experimental: (§2) Compounds evaluated in this test were formulated in a non-phytotoxic solvent mixture which included a surfactant and applied to plants that were grown for various periods of time before treatment (postemergence application). A mixture of sandy loam soil and greenhouse potting mix in a 60:40 ratio was used for the postemergence test.
# (§3) Plantings of these crops and weed species were adjusted to produce plants of appropriate size for the postemergence test. All plant species were grown using normal greenhouse practices. Crop and weed species include arrowleaf sida (Sida rhombifolia), barnyardgrass (Echinochloa crus-galli), cocklebur (Xanthium strumarium), common ragweed (Ambrosia elatior), corn (Zea mays), cotton (Gossypium hirsutum), eastern black nightshade (Solanum ptycanthum), fall panicum (Panicum dichotomiflorum), field bindweed (Convolvulus arvensis), giant foxtail (Setaria faberii), hairy beggarticks (Bidens pilosa), ivyleaf morningglory (Ipomoea hederacea), johnsongrass (Sorghum halepense), ladysthumb smartweed (Polygonum persicaria), lambsquarters (Chenopodium album), large crabgrass (Digitaria sanguinalis), purple nutsedge (Cyperus rotundus), redroot pigweed (Amaranthus retroflexus), soybean (Glycine max), surinam grass (Brachiaria decumbens), velvetleaf (Abutilon theophrasti) and wild poinsettia (Euphorbia heterophylla).
# (§4) Treated plants and untreated controls were maintained in a greenhouse for approximately 14, to 21 days, after which all treated plants were compared to untreated controls and visually evaluated. Plant response ratings, summarized in Table C, were based upon a 0 to 100 scale where 0 was no effect and 100 was complete control. A dash response (−) means no test result.
# ivyleaf morningglory = test: Test C postemergence ivyleaf morningglory; format: in vivo, Ipomoea hederacea; settings: 0 to 100 scale, 0 no effect, 100 complete control
# Experimental: as §2, §3, §4
# ladysthumb smartweed = test: Test C postemergence ladysthumb smartweed; format: in vivo, Polygonum persicaria; settings: 0 to 100 scale, 0 no effect, 100 complete control
# Experimental: as §2, §3, §4
# large crabgrass [2] = test: Test C postemergence large crabgrass; format: in vivo, Digitaria sanguinalis; settings: 0 to 100 scale, 0 no effect, 100 complete control
# Experimental: as §2, §3, §4
# purple nutsedge = test: Test C postemergence purple nutsedge; format: in vivo, Cyperus rotundus; settings: 0 to 100 scale, 0 no effect, 100 complete control
# Experimental: as §2, §3, §4
# soybean = test: Test C postemergence soybean; format: in vivo, Glycine max; settings: 0 to 100 scale, 0 no effect, 100 complete control
# In short: as §1
# chickweed = test: Test E chickweed; format: in vivo, Stellaria media; settings: Postemergence
# Experimental: as §2, with “in the 1- to 4-leaf stage” for “grown for various periods of time before treatment”
# (§5) Plantings of these crops and weed species were adjusted to produce plants of appropriate size for the postemergence test. All plant species were grown using normal greenhouse practices. Crop and weed species include annual bluegrass (Poa annua), blackgrass (Alopecurus myosuroides), black nightshade (Solanum nigra), chickweed (Stellaria media), common poppy (Papaver rhoeas), deadnettle (Lamium amplexicaule), downy brome (Bromus tectorum), field violet (Viola arvensis), galium (Galium aparine), green foxtail (Setaria viridis), Italian ryegrass (Lolium multiflorum), jointed goatgrass (Aegilops cylindrica), kochia (Kochia scoparia), lambsquarters (Chenopodium album), littleseed canarygrass (Phalaris minor), rape (Brassica napus), redroot pigweed (Amaranthus retroflexus), Russian thistle (Salsola kali), scentless chamomile (Matricaria inodora), spring barley (Hordeum vulgare), sugar beet (Beta vulgaris), sunflower (Helianthus annuus), ivyleaf speedwell (Veronica hederaefolia), spring wheat (Triticum aestivum), winter wheat (Triticum aestivum), wild buckwheat (Polygonum convolvulus), wild mustard (Sinapis arvensis), wild oat (Avena fatua), windgrass (Apera spica-venti) and winter barley (Hordeum vulgare).
# (§6) Treated plants and untreated controls were maintained in a greenhouse for approximately 21 to 28 days, after which all treated plants were compared to untreated controls and visually evaluated. […] A dash response (-) means no test result.
# sugar beet = test: Test E sugar beet; format: in vivo, Beta vulgaris; settings: Postemergence
# Experimental: as §2, with “in the 1- to 4-leaf stage” for “grown for various periods of time before treatment”
# as §5, §6
# sunflower = test: Test E sunflower; format: in vivo, Helianthus annuus; settings: Postemergence
# In short: (§7)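 Plants were grown under normal greenhouse practice; for postemergence, in sandy loam soil mixed 60:40 with potting mix, treated at the 1- to 4-leaf stage. The compound was in a non-phytotoxic solvent carrying a surfactant. After roughly 21 to 28 days plants were scored visually against untreated plants.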
# wild oat = test: Test E wild oat; format: in vivo, Avena fatua; settings: Postemergence
# In short: as §7
# deadnettle = test: Test E deadnettle; format: in vivo, Lamium amplexicaule; settings: Preemergence
# wild mustard = test: Test E wild mustard; format: in vivo, Sinapis arvensis; settings: Preemergence
# [3] = Rate 64 g/ha, 0 no injury, 100 complete control
# [4] = Rate 125 g/ha, 0 no injury, 100 complete control
# [5] = Rate 250 g/ha, 0 to 100 scale (0 no effect, 100 complete control)
# [6] = Rate 500 g/ha, 0 to 100 scale, 0 no effect, 100 complete control
# [7] = Rate 125 g/ha, 0 to 100 scale (0 no effect, 100 complete control)
# [8] = Rate 500 g/ha, 0 to 100 scale where 0 is no effect and 100 is complete control
structure (smiles),measurement,setting,value
CC(C)N(C(=O)n1oc(=O)n(C2CC2)c1=O)c1ccc(F)cc1F [Compound 299],"Plant response rating, Itchgrass",itchgrass; [3],0
same,"Plant response rating, Itchgrass",itchgrass; [4],10
same,"Plant response rating, Itchgrass",itchgrass; Rate 250 g/ha,50
same,"Plant response rating, Itchgrass",itchgrass; Rate 500 g/ha,100
same,Plant response rating Large crabgrass,large crabgrass [1]; [3],100
same,Plant response rating Large crabgrass,large crabgrass [1]; [4],100
same,Plant response rating Large crabgrass,large crabgrass [1]; Rate 250 g/ha,100
same,Plant response rating Large crabgrass,large crabgrass [1]; Rate 500 g/ha,100
same,"Plant response rating, P. morninglory",pitted morningglory; [3],0
same,"Plant response rating, P. morninglory",pitted morningglory; [4],0
same,"Plant response rating, P. morninglory",pitted morningglory; Rate 250 g/ha,0
same,"Plant response rating, P. morninglory",pitted morningglory; Rate 500 g/ha,0
CC(C)N(C(=O)n1oc(=O)n(Cc2ccccc2)c1=O)c1ccccc1 [Compound 94],Plant response rating Arrowleaf sida,arrowleaf sida; Rate 280 g/ha,10
same,Plant response rating Arrowleaf sida,arrowleaf sida; Rate 560 g/ha,80
same,Plant response rating Arrowleaf sida,arrowleaf sida; Rate 1120 g/ha,80
same,"Plant response rating, Corn",corn; Rate 140 g/ha,0
same,"Plant response rating, Corn",corn; Rate 280 g/ha,0
same,"Plant response rating, Corn",corn; Rate 560 g/ha,0
same,"Plant response rating, Corn",corn; Rate 1120 g/ha,0
same,Plant response rating I. morningglory,ivyleaf morningglory; Rate 140 g/ha,0
same,Plant response rating I. morningglory,ivyleaf morningglory; Rate 280 g/ha,10
same,Plant response rating I. morningglory,ivyleaf morningglory; Rate 560 g/ha,90
same,Plant response rating Ladysthumb,ladysthumb smartweed; Rate 140 g/ha,5
same,Plant response rating Ladysthumb,ladysthumb smartweed; Rate 280 g/ha,10
same,Plant response rating Ladysthumb,ladysthumb smartweed; Rate 560 g/ha,85
same,Plant response rating Ladysthumb,ladysthumb smartweed; Rate 1120 g/ha,90
same,Plant response rating Large crabgrass,large crabgrass [2]; Rate 140 g/ha,0
same,Plant response rating Large crabgrass,large crabgrass [2]; Rate 280 g/ha,0
same,Plant response rating Large crabgrass,large crabgrass [2]; Rate 560 g/ha,70
same,"Plant response rating, Purple nutsedge",purple nutsedge; Rate 140 g/ha,0
same,"Plant response rating, Purple nutsedge",purple nutsedge; Rate 280 g/ha,0
same,"Plant response rating, Purple nutsedge",purple nutsedge; Rate 560 g/ha,0
same,"Plant response rating, Purple nutsedge",purple nutsedge; Rate 1120 g/ha,0
same,"Plant response rating, Soybean",soybean; Rate 140 g/ha,15
same,"Plant response rating, Soybean",soybean; Rate 280 g/ha,15
same,"Plant response rating, Soybean",soybean; Rate 560 g/ha,30
same,"Plant response rating, Soybean",soybean; Rate 1120 g/ha,55
Cc1ccc(N(C(=O)n2oc(=O)n(C(C)C)c2=O)C(C)C)cc1 [Compound 132],Plant response rating Arrowleaf sida,arrowleaf sida; Rate 140 g/ha,0
same,Plant response rating Arrowleaf sida,arrowleaf sida; Rate 280 g/ha,0
same,Plant response rating Arrowleaf sida,arrowleaf sida; Rate 560 g/ha,10
same,Plant response rating Arrowleaf sida,arrowleaf sida; Rate 1120 g/ha,80
same,"Plant response rating, Corn",corn; Rate 140 g/ha,0
same,"Plant response rating, Corn",corn; Rate 280 g/ha,0
same,"Plant response rating, Corn",corn; Rate 560 g/ha,0
same,"Plant response rating, Corn",corn; Rate 1120 g/ha,10
same,Plant response rating I. morningglory,ivyleaf morningglory; Rate 140 g/ha,0
same,Plant response rating I. morningglory,ivyleaf morningglory; Rate 280 g/ha,0
same,Plant response rating I. morningglory,ivyleaf morningglory; Rate 560 g/ha,0
same,Plant response rating I. morningglory,ivyleaf morningglory; Rate 1120 g/ha,0
same,Plant response rating Large crabgrass,large crabgrass [2]; Rate 140 g/ha,0
same,Plant response rating Large crabgrass,large crabgrass [2]; Rate 280 g/ha,10
same,Plant response rating Large crabgrass,large crabgrass [2]; Rate 560 g/ha,40
same,Plant response rating Large crabgrass,large crabgrass [2]; Rate 1120 g/ha,80
same,"Plant response rating, Purple nutsedge",purple nutsedge; Rate 140 g/ha,0
same,"Plant response rating, Purple nutsedge",purple nutsedge; Rate 280 g/ha,0
same,"Plant response rating, Purple nutsedge",purple nutsedge; Rate 560 g/ha,0
same,"Plant response rating, Purple nutsedge",purple nutsedge; Rate 1120 g/ha,0
same,"Plant response rating, Soybean",soybean; Rate 140 g/ha,5
same,"Plant response rating, Soybean",soybean; Rate 280 g/ha,20
same,"Plant response rating, Soybean",soybean; Rate 560 g/ha,30
same,"Plant response rating, Soybean",soybean; Rate 1120 g/ha,40
CC(C)N(C(=O)n1oc(=O)n(C(C)C)c1=O)c1ccc(F)cc1F [Compound 109],Plant response rating Arrowleaf sida,arrowleaf sida; Rate 140 g/ha,60
same,Plant response rating Arrowleaf sida,arrowleaf sida; Rate 280 g/ha,70
same,Plant response rating Arrowleaf sida,arrowleaf sida; Rate 560 g/ha,85
same,Plant response rating Arrowleaf sida,arrowleaf sida; Rate 1120 g/ha,95
same,"Plant response rating, Corn",corn; Rate 140 g/ha,0
same,"Plant response rating, Corn",corn; Rate 280 g/ha,0
same,"Plant response rating, Corn",corn; Rate 560 g/ha,5
same,"Plant response rating, Corn",corn; Rate 1120 g/ha,55
same,Plant response rating I. morningglory,ivyleaf morningglory; Rate 140 g/ha,0
same,Plant response rating I. morningglory,ivyleaf morningglory; Rate 280 g/ha,50
same,Plant response rating I. morningglory,ivyleaf morningglory; Rate 560 g/ha,50
same,Plant response rating I. morningglory,ivyleaf morningglory; Rate 1120 g/ha,70
same,Plant response rating Ladysthumb,ladysthumb smartweed; Rate 280 g/ha,10
same,Plant response rating Ladysthumb,ladysthumb smartweed; Rate 560 g/ha,30
same,Plant response rating Ladysthumb,ladysthumb smartweed; Rate 1120 g/ha,95
same,Plant response rating Large crabgrass,large crabgrass [2]; Rate 140 g/ha,10
same,Plant response rating Large crabgrass,large crabgrass [2]; Rate 280 g/ha,60
same,Plant response rating Large crabgrass,large crabgrass [2]; Rate 560 g/ha,90
same,Plant response rating Large crabgrass,large crabgrass [2]; Rate 1120 g/ha,90
same,"Plant response rating, Purple nutsedge",purple nutsedge; Rate 140 g/ha,0
same,"Plant response rating, Purple nutsedge",purple nutsedge; Rate 280 g/ha,0
same,"Plant response rating, Purple nutsedge",purple nutsedge; Rate 560 g/ha,0
same,"Plant response rating, Purple nutsedge",purple nutsedge; Rate 1120 g/ha,0
same,"Plant response rating, Soybean",soybean; Rate 140 g/ha,35
same,"Plant response rating, Soybean",soybean; Rate 280 g/ha,70
same,"Plant response rating, Soybean",soybean; Rate 560 g/ha,85
same,"Plant response rating, Soybean",soybean; Rate 1120 g/ha,85
same,"Plant response rating, Chickweed","chickweed; Rate 125 g/ha, 0 to 100 scale",0
same,"Plant response rating, Chickweed",chickweed; [5],0
same,"Plant response rating, Chickweed",chickweed; [6],10
same,"Plant response rating, Sugar beet","sugar beet; Rate 125 g/ha, 0 to 100 scale",30
same,"Plant response rating, Sugar beet",sugar beet; [5],35
same,"Plant response rating, Sugar beet",sugar beet; [6],30
same,"Plant response rating, Sunflower","sunflower; Rate 125 g/ha, 0 to 100 scale",30
same,"Plant response rating, Sunflower",sunflower; [5],30
same,"Plant response rating, Sunflower",sunflower; [6],40
same,"Plant response rating, Wild oat","wild oat; Rate 125 g/ha, 0 to 100 scale",0
same,"Plant response rating, Wild oat",wild oat; [5],0
same,"Plant response rating, Wild oat",wild oat; [6],10
same,"Plant response rating, Deadnettle",deadnettle; [7],20
same,"Plant response rating, Deadnettle","deadnettle; Rate 250 g/ha, 0 to 100 scale",30
same,"Plant response rating, Deadnettle",deadnettle; [8],30
same,"Plant response rating, Wild mustard",wild mustard; [7],30
same,"Plant response rating, Wild mustard","wild mustard; Rate 250 g/ha, 0 to 100 scale",85
same,"Plant response rating, Wild mustard",wild mustard; [8],80

# — patent publication US6737383B1, “Herbicidal oxadiazolidines” (priority 1999, dated 2004)
